Laboratory results from ChEMBL document CHEMBL1136095, “Pyrazole-O-glucosides as novel Na(+)-glucose cotransporter (SGLT) inhibitors” (2003).
The source made the active and inactive calls. The calls are words filed in the database; no cut-off is given here.

Legend:
[1] = tested on: Rattus norvegicus; assay: Urinary glucose excretion in Wistar rat after intravenous administration (3 mg/kg); assay type: functional, Urine
[2] = species: Rattus norvegicus; assay: Na+ -glucose co-transporter (SGLT) inhibitory activity against [C14]-glucose transport in BBMV's of rat kidney at compound concentration of 10 uM
[3] = species: Rattus norvegicus; assay: Na+ -glucose co-transporter (SGLT) inhibitory activity against [C14]-glucose transport in BBMV's of rat kidney at compound concentration of 100 uM: Not active; assay type: functional
[4] = species: Rattus norvegicus; assay: Na+ -glucose co-transporter (SGLT) inhibitory activity against [C14]-glucose transport in BBMV's of rat kidney at compound concentration of 100 uM; assay type: functional

CCc1ccc(Cc2c(C(F)(F)F)n[nH]c2O[C@@H]2O[C@H](CO)[C@@H](O)[C@H](O)[C@H]2O)cc1
Glucose [1]: 63 mg/day
Inhibition [2]: 84%

CSc1ccc(Cc2c(C(F)(F)F)n[nH]c2O)cc1
Glucose [1]: 0 mg/day
inhibition [3]: inactive

CCc1ccc(Cc2c(C(F)(F)F)n[nH]c2O[C@@H]2O[C@H](C(=O)O)[C@@H](O)[C@H](O)[C@H]2O)cc1
Glucose [1]: 2.6 mg/day
Inhibition [4]: 30%
